The values that follow come from the supplement of paper PMC11281043.

± gives the standard deviation of the averaged measurements.

Experiment [1] relates to Danio rerio embryo/larva. Description: BMC craniofacial defects; higher = less potent. Particulars: max tested concentration (log10 uM): 2; exposure: 6-8 hpf to 5 dpf, scored at 6 dpf. The protocol: (§1)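 Zebrafish embryos (with chorion) were exposed from 6-8 hpf to each PFAS (8-point half-log series, top concentration up to 100 uM, 0.4% DMSO, sealed plates, 26 C; n = 6 embryos per concentration), rinsed at 5 dpf and scored at 6 dpf by two blinded observers for mortality, hatching and malformations. Endpoint scores are the % of living larvae affected (dead larvae excluded; […]). Curves were fitted with tcpl (cutoff 16%), and the BMC is the concentration at a benchmark response of 21.6%.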

For experiment [2], the system named is Danio rerio embryo/larva. Description: BMC edema; higher = less potent. The note with it: max tested concentration (log10 uM): 2; exposure: 6-8 hpf to 5 dpf, scored at 6 dpf. The gist of the method:
(§2)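 Two blinded assessors scored mortality (as % dead), hatching and malformations (as % of living larvae affected), without normalisation. The larvae came from wild-type zebrafish embryos with chorions, placed singly in wells of 200 μL 10% Hanks' at 6–8 hpf, given an 8-point half-log DMSO series (0.4% DMSO final), kept sealed at 26 °C with n = 6 per concentration, rinsed at 5 dpf and scored at 6 dpf. Benchmark concentration was fitted in tcpl, with bounded models chosen by lowest AIC. A benchmark response of 1.349 × baseline standard deviation was used.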

Experiment [3] relates to Danio rerio embryo/larva. The experiment in a line: BMC abnormal position; higher = less potent. The note with it: max tested concentration (log10 uM): 2; exposure: 6-8 hpf to 5 dpf, scored at 6 dpf. The protocol: as §1
The test system of experiment [4] is Danio rerio embryo/larva. Description: max % larvae with any abnormality across tested concentrations; max tested concentration (log10 uM): 2; higher = more toxic; extreme values may be limits of the assay. Particulars: exposure: 6-8 hpf to 5 dpf, scored at 6 dpf.
Experiment [5] has as its system Danio rerio embryo/larva. The experiment in a line: max % larvae unhatched across tested concentrations; max tested concentration (log10 uM): 2; higher = more toxic. Particulars: exposure: 6-8 hpf to 5 dpf, scored at 6 dpf.
Experiment [6] has as its system Danio rerio embryo/larva. Description: BMC swim bladder non-inflation; higher = less potent. The note with it: max tested concentration (log10 uM): 2; exposure: 6-8 hpf to 5 dpf, scored at 6 dpf. In short, it runs like this:
as §2

For experiment [7], the system named is Danio rerio embryo/larva. The experiment in a line: BMC any abnormality; max tested concentration (log10 uM): 2; higher = less potent. Particulars: exposure: 6-8 hpf to 5 dpf, scored at 6 dpf. The gist of the method: as §2
The subject of experiment [8] is Danio rerio embryo/larva. Description: BMC blood pooling; max tested concentration (log10 uM): 2; higher = less potent. The note with it: exposure: 6-8 hpf to 5 dpf, scored at 6 dpf. The protocol:
as §1

For experiment [9], the system named is Danio rerio embryo/larva. The experiment in a line: BMC spinal defects; higher = less potent. The note with it: max tested concentration (log10 uM): 2; exposure: 6-8 hpf to 5 dpf, scored at 6 dpf. The protocol: as §1
The test system of experiment [10] is Danio rerio embryo/larva. Description: max % larvae with any abnormality across tested concentrations; max tested concentration (log10 uM): 1.60206; higher = more toxic; extreme values may be limits of the assay. Particulars: exposure: 6-8 hpf to 5 dpf, scored at 6 dpf.
Experiment [11] deals with Danio rerio embryo/larva. The experiment in a line: BMC mortality; max tested concentration (log10 uM): 1.60206; higher = less potent. Particulars: exposure: 6-8 hpf to 5 dpf, scored at 6 dpf. The protocol: as §1
Experiment [12] deals with Danio rerio embryo/larva. Description: max % larvae dead across tested concentrations; max tested concentration (log10 uM): 1.60206; higher = more toxic; extreme values may be limits of the assay. Particulars: exposure: 6-8 hpf to 5 dpf, scored at 6 dpf.
Experiment [13] deals with Danio rerio embryo/larva. Description: BMC any abnormality; max tested concentration (log10 uM): 1.60206; higher = less potent. Particulars: exposure: 6-8 hpf to 5 dpf, scored at 6 dpf. The protocol: as §1
Experiment [14] has as its system Danio rerio embryo/larva. The experiment in a line: max % larvae unhatched across tested concentrations; max tested concentration (log10 uM): 1.60206; higher = more toxic. Particulars: exposure: 6-8 hpf to 5 dpf, scored at 6 dpf.
Experiment [15] deals with Danio rerio embryo/larva. The experiment in a line: max % larvae dead across tested concentrations; max tested concentration (log10 uM): 2; higher = more toxic; extreme values may be limits of the assay. The note with it: exposure: 6-8 hpf to 5 dpf, scored at 6 dpf.
Experiment [16] concerns Danio rerio embryo/larva. Description: max % larvae unhatched across tested concentrations; max tested concentration (log10 uM): 1.30103; higher = more toxic. The note with it: exposure: 6-8 hpf to 5 dpf, scored at 6 dpf.
Experiment [17] concerns Danio rerio embryo/larva. The experiment in a line: max % larvae with any abnormality across tested concentrations; max tested concentration (log10 uM): 1.30103; higher = more toxic; extreme values may be limits of the assay. Particulars: exposure: 6-8 hpf to 5 dpf, scored at 6 dpf.

As to `FC(F)(I)C(F)(F)C(F)(F)C(F)(F)C(F)(F)C(F)(F)I` [1,6-Diiodoperfluorohexane], the BMC craniofacial defects in the experiment with Danio rerio embryo/larva [1] came to 26.4 ± 3.9 µM. This compound yielded a BMC edema in the experiment on Danio rerio embryo/larva [2] of 6.97 ± 5.2 µM. Moreover, the BMC abnormal position with Danio rerio embryo/larva [3] is 14.9 ± 17 µM. The compound also yielded a max % larvae with Danio rerio embryo/larva [4] of 100%. In addition, the “max % larvae unhatched across tested concentrations” value in the experiment on Danio rerio embryo/larva [5] is 0%. Besides, the “BMC swim bladder non-inflation” value with Danio rerio embryo/larva [6] came to 6.49 ± 3.8 µM. The compound further yielded a BMC any abnormality in the experiment on Danio rerio embryo/larva [7] of 5.18 ± 4.7 µM. Besides, in the experiment on Danio rerio embryo/larva [8], the BMC blood pooling was 14.5 ± 16 µM. The compound further gave a BMC spinal defects in the experiment on Danio rerio embryo/larva [9] of 7.34 µM.

Turning to `NCC(F)(F)C(F)(F)C(F)(F)C(F)(F)C(F)(F)C(F)(F)C(F)(F)C(F)(F)F` [1H,1H-Perfluorononylamine], the max % larvae with Danio rerio embryo/larva [10] worked out at 100%. Also, the BMC mortality in the experiment on Danio rerio embryo/larva [11] was 29.9 µM. Besides, in the experiment with Danio rerio embryo/larva [12], the “max % larvae dead across tested concentrations” value amounted to 66.7%. In addition, the BMC any abnormality with Danio rerio embryo/larva [13] is 27.2 µM. For the same compound, in the experiment on Danio rerio embryo/larva [14], the “max % larvae unhatched across tested concentrations” value stood at 0%.

In the experiment with Danio rerio embryo/larva [2], `O=S(=O)(OCC(F)(F)F)C(F)(F)C(F)(F)C(F)(F)C(F)(F)F` [2,2,2-Trifluoroethyl perfluorobutanesulfonate] came in with a BMC edema of 32.7 µM. The max % larvae in the experiment on Danio rerio embryo/larva [4] was 95.5%. Also, the “max % larvae unhatched across tested concentrations” value in the experiment on Danio rerio embryo/larva [5] worked out at 0%. Further, in the experiment on Danio rerio embryo/larva [6], the “BMC swim bladder non-inflation” value turned out to be 77 µM. The “max % larvae dead across tested concentrations” value in the experiment on Danio rerio embryo/larva [15] was determined as 0%. For the same compound, the BMC any abnormality in the experiment on Danio rerio embryo/larva [7] was 29.4 µM. In addition, in the experiment on Danio rerio embryo/larva [8], the BMC blood pooling was determined as 35.5 µM.

`OCC(F)(F)C(F)(F)C(F)(F)C(F)(F)C(F)(F)C(F)(F)C(F)(F)C(F)(F)C(F)(F)C(F)(F)C(F)(F)F` [11:1 Fluorotelomer alcohol]: the “max % larvae unhatched across tested concentrations” value in the experiment on Danio rerio embryo/larva [16] came out at 0%. Besides, the max % larvae with Danio rerio embryo/larva [17] was 8.33%.

`C=C(C)C(=O)OCC(F)(F)C(F)(F)C(F)(F)C(F)(F)C(F)(F)C(F)(F)C(F)(F)F` [(Perfluoroheptyl)methyl methacrylate]: the max % larvae with Danio rerio embryo/larva [10] is 0%. The “max % larvae dead across tested concentrations” value in the experiment with Danio rerio embryo/larva [12] was 0%. Moreover, the “max % larvae unhatched across tested concentrations” value in the experiment with Danio rerio embryo/larva [14] stood at 0%.

Compound `CO[Si](C)(CCC(F)(F)C(F)(F)C(F)(F)C(F)(F)C(F)(F)C(F)(F)F)OC` [Dimethoxymethyl((perfluorohexyl)ethyl)silane] returned a max % larvae with Danio rerio embryo/larva [10] of 0%. For the same compound, in the experiment with Danio rerio embryo/larva [12], the “max % larvae dead across tested concentrations” value is 0%. For the same compound, the “max % larvae unhatched across tested concentrations” value in the experiment with Danio rerio embryo/larva [14] was found to be 0%.

In the case of `COC(=O)C(F)(F)C(F)(F)OC(F)(C(F)(F)F)C(F)(F)OC(F)=C(F)F` (configuration not stated) [Methyl perfluoro(3-(1-ethenyloxypropan-2-yloxy)propanoate)], the max % larvae in the experiment with Danio rerio embryo/larva [10] was 8.33%. For the same compound, the “max % larvae dead across tested concentrations” value in the experiment with Danio rerio embryo/larva [12] was 0%. Moreover, the “max % larvae unhatched across tested concentrations” value with Danio rerio embryo/larva [14] came out at 0%.
